# How the values were obtained:
# Assay type in all cases: in vivo
# [1] = test system: sicklepod (Cassia obtusifolia, CASOB); test: Post-emerge greenhouse herbicide test, phytotoxicity rating; conditions: 14 days after application
# In short: (§1)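 Compounds in acetone with 0.25% v/v non-ionic surfactant were track-sprayed at 187 l/ha over plants at the 2-3 leaf stage, at 63 to 1000 g ai/ha. Pots were bottom-watered. Injury was scored visually 14 days later on a 0-100 scale, where 0 is no damage and 100 is complete plant death.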
# [2] = test system: barnyardgrass (Echinochloa crusgalli, ECHCG); test: as above; conditions: 14 days after application
# In short: as §1
# [3] = test system: green foxtail (Setaria viridis, SETVI); test: as above; conditions: 14 days after application
# In short: as §1
# [4] = test system: Johnsongrass (Sorghum halepense, SORHA); test: as above; conditions: 14 days after application
# In short: as §1
# [5] = test system: ivyleaf morningglory (Ipomoea hederacea, IPOHE); test: as above; conditions: 14 days after application
# In short: as §1
# [6] = test system: large crabgrass (Digitaria sanguinalis, DIGSA); test: as above; conditions: 14 days after application
# In short: as §1
# [7] = test system: velvetleaf (Abutilon theophrasti, ABUTH); test: as above; conditions: 14 days after application
# In short: as §1
# [8] = test system: redroot pigweed (Amaranthus retroflexus, AMARE); test: as above; conditions: 14 days after application
# In short: as §1
# [9] = test system: lambsquarters (Chenopodium album, CHEAL); test: as above; conditions: 14 days after application
# In short: as §1
# [10] = test system: upland rice (Oryza sp., var.Tebonnet, RICE); test: Post-emerge greenhouse test, crop damage rating; conditions: 14 days after application
# In short: as §1
# [11] = test system: field corn (Zea mays L., var. Dekalb 535, CORN); test: Post-emerge greenhouse test, crop damage rating; conditions: 14 days after application
# In short: as §1
# [12] = test system: soybean (Glycine max L., var. Pella 86, SOY); test: Post-emerge greenhouse test, crop damage rating; conditions: 14 days after application
# In short: as §1
# [13] = test system: common ragweed (Ambrosia artemisiifolia L., AMBEL); test: Post-emerge greenhouse herbicide test, phytotoxicity rating; conditions: 14 days after application
# In short: as §1
# [14] = test system: sicklepod (Cassia obtusifolia, CASOB); test: Pre-emerge greenhouse herbicide test, phytotoxicity rating; conditions: 14 days after application, rating scale 0-100
# In short: (§2)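 Seeds sown in sandy loam mix one day before track-sprayer application of compounds in acetone at 125–1000 g ai/ha (187 l/ha), then surface-watered to incorporate and bottom-watered. Visual rating 14 days after application on a 0–100 scale (0 = no damage, 100 = all plants dead).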
# [15] = test system: barnyardgrass (Echinochloa crusgalli, ECHCG); test: as above; conditions: 14 days after application, rating scale 0-100
# In short: as §2
# [16] = test system: green foxtail (Setaria viridis, SETVI); test: as above; conditions: 14 days after application, rating scale 0-100
# In short: as §2
# [17] = test system: Johnsongrass (Sorghum halepense, SORHA); test: as above; conditions: 14 days after application, rating scale 0-100
# In short: as §2
# [18] = test system: common ragweed (Ambrosia artemisiifolia L., AMBEL); test: as above; conditions: 14 days after application, rating scale 0-100
# In short: as §2
# [19] = test system: ivyleaf morningglory (Ipomoea hederacea, IPOHE); test: as above; conditions: 14 days after application, rating scale 0-100
# In short: as §2
# [20] = test system: large crabgrass (Digitaria sanguinalis, DIGSA); test: as above; conditions: 14 days after application, rating scale 0-100
# In short: as §2
# [21] = test system: velvetleaf (Abutilon theophrasti, ABUTH); test: as above; conditions: 14 days after application, rating scale 0-100
# In short: as §2
# [22] = test system: redroot pigweed (Amaranthus retroflexus, AMARE); test: as above; conditions: 14 days after application, rating scale 0-100
# In short: as §2
# [23] = test system: lambsquarters (Chenopodium album, CHEAL); test: as above; conditions: 14 days after application, rating scale 0-100
# In short: as §2
# [24] = test system: soybean (Glycine max L., var. Pella 86, SOY); test: Pre-emerge greenhouse test, crop damage rating; conditions: 14 days after application, rating scale 0-100
# In short: as §2
# [25] = test system: upland rice (Oryza sp., var.Tebonnet, RICE); test: Pre-emerge greenhouse test, crop damage rating; conditions: 14 days after application, rating scale 0-100
# In short: as §2
# [26] = test system: field corn (Zea mays L., var. Dekalb 535, CORN); test: Pre-emerge greenhouse test, crop damage rating; conditions: 14 days after application, rating scale 0-100
# In short: as §2
smiles,measurement,setting,value
O=c1n(-c2cc(Oc3ccccc3)c(Cl)cc2F)c(=S)n2n1CCCC2 [Compound 8-5],CASOB phytotoxicity rating (0-100),[1]; 63 g al/ha,55
same,CASOB phytotoxicity rating (0-100),[1]; 500 g al/ha,100
same,ECHCG phytotoxicity rating (0-100),[2]; 63 g al/ha,20
same,ECHCG phytotoxicity rating (0-100),[2]; 500 g al/ha,55
same,SETVI phytotoxicity rating (0-100),[3]; 63 g al/ha,30
same,SETVI phytotoxicity rating (0-100),[3]; 500 g al/ha,65
same,SORHA phytotoxicity rating (0-100),[4]; 63 g al/ha,10
same,SORHA phytotoxicity rating (0-100),[4]; 500 g al/ha,60
same,IPOHE phytotoxicity rating (0-100),[5]; 63 g al/ha,90
same,IPOHE phytotoxicity rating (0-100),[5]; 500 g al/ha,100
same,DIGSA phytotoxicity rating (0-100),[6]; 63 g al/ha,0
same,DIGSA phytotoxicity rating (0-100),[6]; 500 g al/ha,70
same,ABUTH phytotoxicity rating (0-100),[7]; 63 g al/ha,100
same,ABUTH phytotoxicity rating (0-100),[7]; 500 g al/ha,100
same,AMARE phytotoxicity rating (0-100),[8]; 63 g al/ha,100
same,AMARE phytotoxicity rating (0-100),[8]; 500 g al/ha,100
same,CHEAL phytotoxicity rating (0-100),[9]; 63 g al/ha,100
same,CHEAL phytotoxicity rating (0-100),[9]; 500 g al/ha,100
same,RICE crop damage rating (0-100),[10]; 63 g al/ha,0
same,RICE crop damage rating (0-100),[10]; 500 g al/ha,10
same,CORN crop damage rating (0-100),[11]; 63 g al/ha,5
same,CORN crop damage rating (0-100),[11]; 500 g al/ha,20
same,SOY crop damage rating (0-100),[12]; 63 g al/ha,50
same,SOY crop damage rating (0-100),[12]; 500 g al/ha,85
same,AMBEL phytotoxicity rating (0-100),[13]; 63 g al/ha,55
same,AMBEL phytotoxicity rating (0-100),[13]; 500 g al/ha,100
same,phytotoxicity rating CASOB,[14]; 125 g ai/ha,30
same,phytotoxicity rating CASOB,[14]; 500 g ai/ha,95
same,phytotoxicity rating ECHCG,[15]; 125 g ai/ha,0
same,phytotoxicity rating ECHCG,[15]; 500 g ai/ha,60
same,phytotoxicity rating SETVI,[16]; 125 g ai/ha,80
same,phytotoxicity rating SETVI,[16]; 500 g ai/ha,100
same,phytotoxicity rating SORHA,[17]; 125 g ai/ha,20
same,phytotoxicity rating SORHA,[17]; 500 g ai/ha,30
same,phytotoxicity rating AMBEL,[18]; 125 g ai/ha,40
same,phytotoxicity rating AMBEL,[18]; 500 g ai/ha,100
same,phytotoxicity rating IPOHE,[19]; 125 g ai/ha,0
same,phytotoxicity rating IPOHE,[19]; 500 g ai/ha,70
same,phytotoxicity rating DIGSA,[20]; 125 g ai/ha,40
same,phytotoxicity rating DIGSA,[20]; 500 g ai/ha,85
same,phytotoxicity rating ABUTH,[21]; 125 g ai/ha,100
same,phytotoxicity rating ABUTH,[21]; 500 g ai/ha,100
same,phytotoxicity rating AMARE,[22]; 125 g ai/ha,95
same,phytotoxicity rating AMARE,[22]; 500 g ai/ha,100
same,phytotoxicity rating CHEAL,[23]; 125 g ai/ha,100
same,phytotoxicity rating CHEAL,[23]; 500 g ai/ha,100
same,crop damage rating SOY,[24]; 125 g ai/ha,0
same,crop damage rating SOY,[24]; 500 g ai/ha,40
same,crop damage rating RICE,[25]; 125 g ai/ha,0
same,crop damage rating RICE,[25]; 500 g ai/ha,25
same,crop damage rating CORN,[26]; 125 g ai/ha,0
same,crop damage rating CORN,[26]; 500 g ai/ha,5
N#Cc1cccnc1Oc1cc(-n2nnn(CCCF)c2=O)c(Cl)cc1Cl [Compound 6-5],ECHCG phytotoxicity rating (0-100),[2]; 63 g al/ha,0
same,ECHCG phytotoxicity rating (0-100),[2]; 500 g al/ha,0
same,SETVI phytotoxicity rating (0-100),[3]; 63 g al/ha,0
same,SETVI phytotoxicity rating (0-100),[3]; 500 g al/ha,30
same,SORHA phytotoxicity rating (0-100),[4]; 63 g al/ha,0
same,SORHA phytotoxicity rating (0-100),[4]; 500 g al/ha,20
same,IPOHE phytotoxicity rating (0-100),[5]; 63 g al/ha,0
same,IPOHE phytotoxicity rating (0-100),[5]; 500 g al/ha,0
same,DIGSA phytotoxicity rating (0-100),[6]; 63 g al/ha,0
same,DIGSA phytotoxicity rating (0-100),[6]; 500 g al/ha,10
same,ABUTH phytotoxicity rating (0-100),[7]; 63 g al/ha,0
same,ABUTH phytotoxicity rating (0-100),[7]; 500 g al/ha,20
same,AMARE phytotoxicity rating (0-100),[8]; 63 g al/ha,40
same,AMARE phytotoxicity rating (0-100),[8]; 500 g al/ha,80
same,CHEAL phytotoxicity rating (0-100),[9]; 63 g al/ha,20
same,CHEAL phytotoxicity rating (0-100),[9]; 500 g al/ha,80
same,RICE crop damage rating (0-100),[10]; 63 g al/ha,20
same,RICE crop damage rating (0-100),[10]; 500 g al/ha,30
same,CORN crop damage rating (0-100),[11]; 63 g al/ha,0
same,CORN crop damage rating (0-100),[11]; 500 g al/ha,0
same,SOY crop damage rating (0-100),[12]; 63 g al/ha,20
same,SOY crop damage rating (0-100),[12]; 500 g al/ha,30
same,AMBEL phytotoxicity rating (0-100),[13]; 63 g al/ha,0
same,AMBEL phytotoxicity rating (0-100),[13]; 500 g al/ha,0
same,phytotoxicity rating CASOB,[14]; 125 g ai/ha,70
same,phytotoxicity rating CASOB,[14]; 500 g ai/ha,50
same,phytotoxicity rating ECHCG,[15]; 125 g ai/ha,0
same,phytotoxicity rating ECHCG,[15]; 500 g ai/ha,0
same,phytotoxicity rating SETVI,[16]; 125 g ai/ha,0
same,phytotoxicity rating SETVI,[16]; 500 g ai/ha,100
same,phytotoxicity rating SORHA,[17]; 125 g ai/ha,30
same,phytotoxicity rating SORHA,[17]; 500 g ai/ha,70
same,phytotoxicity rating AMBEL,[18]; 125 g ai/ha,0
same,phytotoxicity rating AMBEL,[18]; 500 g ai/ha,50
same,phytotoxicity rating IPOHE,[19]; 125 g ai/ha,40
same,phytotoxicity rating IPOHE,[19]; 500 g ai/ha,40
same,phytotoxicity rating DIGSA,[20]; 125 g ai/ha,30
same,phytotoxicity rating DIGSA,[20]; 500 g ai/ha,70
same,phytotoxicity rating ABUTH,[21]; 125 g ai/ha,0
same,phytotoxicity rating ABUTH,[21]; 500 g ai/ha,90
same,phytotoxicity rating AMARE,[22]; 125 g ai/ha,90
same,phytotoxicity rating AMARE,[22]; 500 g ai/ha,100
same,phytotoxicity rating CHEAL,[23]; 125 g ai/ha,90
same,phytotoxicity rating CHEAL,[23]; 500 g ai/ha,100
same,crop damage rating SOY,[24]; 125 g ai/ha,10
same,crop damage rating SOY,[24]; 500 g ai/ha,0
same,crop damage rating RICE,[25]; 125 g ai/ha,20
same,crop damage rating RICE,[25]; 500 g ai/ha,10
same,crop damage rating CORN,[26]; 125 g ai/ha,20
same,crop damage rating CORN,[26]; 500 g ai/ha,20

# Source: patent US6479435B1, “Diaryl ethers and processes for their preparation and herbicidal and desiccant compositions containing them” (ISK Americas Incorporated, priority 1997, dated 2002)
